Results from patent publication US10858335B2 (Rigel Pharmaceuticals, Inc., priority 2014, dated 2020).

What follows are compounds tested on GDF8 signaling (p-SMAD-3 (Ser423/425)) (assay: AlphaScreen SureFire SMAD3 (p-Ser423/425) assay, GDF8-stimulated cells (GDF pSMAD)). Conditions: Mus musculus, MPC-11, GDF8-stimulated pSMAD3, MPC11; tested as the salt form given; read-out: GDF pSMAD (MPC11) (μM), inhibition of GDF8 signaling.
Assay type: cell-based

| Structure (SMILES) | IC50 |
| --- | --- |
| Cc1cc(-c2ncccc2-c2ccc3ncnn3c2)c(C)cc1F [compound 1064] | 0.804 µM |
| Cc1c(F)cc(C(F)F)cc1-c1ncccc1-c1ccc2ncnc(N)c2c1 [compound 1034, 6-(2-(5-(difluoromethyl)-3-fluoro-2-methylphenyl)pyridin-3-yl)quinazolin-4-amine] | 0.342 µM |

Continued, values first:

| IC50 | Structure (SMILES) |
| --- | --- |
| 0.175 µM | Cc1cc(-c2ncccc2-c2ccc3ncnc(N)c3c2)ccc1F [compound 1021, 6-(2-(4-fluoro-3-methylphenyl)pyridin-3-yl)quinazolin-4-amine] |
| 9.67 µM | c1cnc(-c2cccc3c2OCC3)c(-c2ccc3ncsc3c2)c1 [compound 1076] |

Same assay, conditions: Mus musculus, MPC-11, MPC11; GDF8-stimulated; p-SMAD3 AlphaScreen; read-out: GDF pSMAD (MPC11) (inhibition of GDF8 signaling)

| Structure (SMILES) | IC50 |
| --- | --- |
| Fc1ccc(Cl)cc1-c1ncccc1-c1ccn2ncnc2c1 [compound 736, 7-(2-(5-Chloro-2-fluorophenyl)pyridin-3-yl)-[1,2,4]triazolo[1,5-a]pyridine] | 0.251 µM |
| COc1ccc(NC(=O)c2cnc3ccc(-c4cccnc4-c4ccc(F)c(C)c4)cn23)cc1OC [compound 582, N-(3,4-Dimethoxyphenyl)-6-(2-(4-fluoro-3-methylphenyl)pyridin-3-yl)imidazo[1,2-a]pyridine-3-carboxamide] | 0.494 µM |
| Cc1cc(-c2ncccc2-c2ccn3c(C(=O)NCCN4CCOCC4)ncc3c2)ccc1F [compound 275, 7-(2-(4-Fluoro-3-methylphenyl)pyridin-3-yl)-N-(2-morpholinoethyl)imidazo[1,5-a]pyridine-3-carboxamide] | 2.95 µM |
| Cc1cc(-c2ncccc2-c2ccc3ncnc(OCCCN4CCN(C)CC4)c3c2)ccc1F [compound 434, 6-(2-(4-Fluoro-3-methylphenyl)pyridin-3-yl)-4-(3-(4-methylpiperazin-1-yl)propoxy)quinazoline] | 1.49 µM |
| NC(=O)c1ccnc2ccc(-c3cccnc3-c3cc(Cl)c(F)cc3F)cc12 [compound 850, 6-(2-(5-Chloro-2,4-difluorophenyl)pyridin-3-yl)quinoline-4-carboxamide] | 20.7 µM |
| CC(=O)Nc1cnc(-c2cccc(C3CC3)c2)c(-c2ccc3[nH]ncc3c2)c1 [Compound 25, N-(6-(3-Cyclopropylphenyl)-5-(1H-indazol-5-yl)pyridin-3-yl)acetamide] | 0.612 µM |
| COc1cccc(-c2ncccc2-c2cnc3cn[nH]c3c2)c1 [Compound 142, 6-(2-(3-Methoxyphenyl)pyridin-3-yl)-1H-pyrazolo[4,3-b]pyridine] | 1.19 µM |
| Nc1ncnc2ccc(-c3cccnc3-c3cccc(OC(F)(F)F)c3)cc12 [compound 452, 6-(2-(3-(Trifluoromethoxy)phenyl)pyridin-3-yl)quinazolin-4-amine] | 0.223 µM |
| Nc1ncnc2ccc(-c3cccnc3-c3cccc(OCC4CC4)c3)cc12 [compound 483, 6-(2-(3-(Cyclopropylmethoxy)phenyl)pyridin-3-yl)quinazolin-4-amine] | 0.82 µM |
| Fc1ccc(Cl)cc1-c1ncccc1-c1ccc2nccn2c1 [compound 721, 6-(2-(5-Chloro-2-fluorophenyl)pyridin-3-yl)imidazo[1,2-a]pyridine] | 0.44 µM |
| Cn1cnc2ccc(-c3cccnc3-c3cccc(C4CC4)c3)cc21 [Compound 200, 6-(2-(3-Cyclopropylphenyl)pyridin-3-yl)-1-methyl-1H-benzo[d]imidazole] | 0.26 µM |
| COc1cnc(-c2ccc(F)c(C)c2)c(-c2ccn3ncnc3c2)c1 [compound 854, 7-(2-(4-Fluoro-3-methylphenyl)-5-methoxypyridin-3-yl)-[1,2,4]triazolo[1,5-a]pyridine] | 4.67 µM |
| Cc1cc(-c2ncccc2-c2ccc3ncc(C(=O)NCCN4CCOC4=O)n3c2)ccc1F [compound 817, 6-(2-(4-Fluoro-3-methylphenyl)pyridin-3-yl)-N-(2-(2-oxooxazolidin-3-yl)ethyl)imidazo[1,2-a]pyridine-3-carboxamide] | 0.584 µM |
| Fc1cc(F)c(-c2ncccc2-c2ccc3ncnn3n2)cc1Cl [compound 956, 6-(2-(5-Chloro-2,4-difluorophenyl)pyridin-3-yl)-[l 1,2,4]triazolo[1,5-b]pyridazine] | 0.421 µM |
| Cc1cc(-c2ncc(NCc3ccc(C(N)=O)cc3)cc2-c2ccc3nccnc3c2)ccc1F [compound 307, 4-(((6-(4-Fluoro-3-methylphenyl)-5-(quinoxalin-6-yl)pyridin-3-yl)amino)methyl)benzamide] | 2.22 µM |
| CC(=O)Nc1cnc(-c2ccc(F)c(C)c2)c(-c2ccc3[nH]ncc3c2)c1 [Compound 24, N-(6-(4-Fluoro-3-methylphenyl)-5-(1H-indazol-5-yl)pyridin-3-yl)acetamide] | 0.671 µM |
| Cc1cc(-c2ncccc2-c2ccn3c(C(=O)NCCCn4ccnc4)ncc3c2)ccc1F [compound 277, N-(3-(1H-Imidazol-1-yl)propyl)-7-(2-(4-fluoro-3-methylphenyl)pyridin-3-yl)imidazo[1,5-a]pyridine-3-carboxamide] | 1.67 µM |
| NC(=O)c1ccnc2ccc(-c3cccnc3-c3cccc(Cl)c3)cc12 [compound 848, 6-(2-(3-Chlorophenyl)pyridin-3-yl)quinoline-4-carboxamide] | 11.1 µM |
| CC(=O)c1cnc2ccc(-c3cccnc3-c3cccc(C)c3)cn12 [compound 587, 1-(6-(2-(m-Tolyl)pyridin-3-yl)imidazo[1,2-a]pyridin-3-yl)ethan-1-one] | 0.366 µM |
| Fc1cccc(-c2ncccc2-c2ccc3cn[nH]c3c2)c1 [Compound 100, 6-(2-(3-Fluorophenyl)pyridin-3-yl)-1H-indazole] | 6.03 µM |
| COc1cc(Nc2nccc(-c3cccnc3-c3ccc(F)c(C)c3)n2)cc(OC)c1OC [compound 903, 4-(2-(4-Fluoro-3-methylphenyl)pyridin-3-yl)-N-(3,4,5-trimethoxyphenyl)pyrimidin-2-amine] | 2.58 µM |
| CN1CCC(NC(=O)c2cnn3ccc(-c4cccnc4-c4ccc(F)c(Cl)c4)nc23)CC1 [compound 899, 5-(2-(3-Chloro-4-fluorophenyl)pyridin-3-yl)-N-(1-methylpiperidin-4-yl)pyrazolo[1,5-a]pyrimidine-3-carboxamide] | 2.14 µM |
| FC(F)(F)c1cccc(-c2ncccc2-c2ccn3cncc3c2)c1 [compound 597, 7-(2-(3-(Trifluoromethyl)phenyl)pyridin-3-yl)imidazo[1,5-a]pyridine] | 0.837 µM |
| CCN(CC)c1ncnc2ccc(-c3cccnc3-c3cccc(O)c3)cc12 [compound 399, 3-(3-(4-(Diethylamino)quinazolin-6-yl)pyridin-2-yl)phenol] | 4.65 µM |
| Cc1cccc(-c2ncccc2-c2ccc3ncc(CN4CCOCC4)n3c2)c1 [compound 570, 4-((6-(2-(m-Tolyl)pyridin-3-yl)imidazo[1,2-a]pyridin-3-yl)methyl)morpholine] | 5.9 µM |
| COc1cccc(-c2ncccc2-c2ccc3nccn3c2)c1 [Compound 52, 6-(2-(3-Methoxyphenyl)pyridin-3-yl)imidazo[1,2-a]pyridine] | 1.4 µM |
| Cc1cc(-c2nc(N)ccc2-c2ccc3[nH]ncc3c2)ccc1F [Compound 21, 6-(4-Fluoro-3-methylphenyl)-5-(1H-indazol-5-yl)pyridin-2-amine] | 1.92 µM |

Next, values leading:

| IC50 | Structure (SMILES) |
| --- | --- |
| 0.313 µM | Clc1cccc(-c2ncccc2-c2ccc3ncsc3c2)c1 [compound 668, 6-(2-(3-Chlorophenyl)pyridin-3-yl)benzo[d]thiazole] |
| 0.414 µM | Fc1ccc(-c2ncccc2-c2ccc3nccnc3c2)cc1Cl [compound 690, 6-(2-(3-Chloro-4-fluorophenyl)pyridin-3-yl)quinoxaline] |
| 7.64 µM | COc1ccnc2ccc(-c3cccnc3-c3cccc(Cl)c3)cc12 [compound 841, 6-(2-(3-Chlorophenyl)pyridin-3-yl)-4-methoxyquinoline] |
| 10.5 µM | CCOCCCn1cnc2ccc(-c3cccnc3-c3ccc(F)c(C)c3)cc21 [Compound 42, 1-(3-Ethoxypropyl)-6-(2-(4-fluoro-3-methylphenyl)pyridin-3-yl)-1H-benzo[d]imidazole] |
| 0.436 µM | Fc1ccc(-c2ncccc2-c2ccc3ncnn3c2)cc1Cl [compound 692, 6-(2-(3-Chloro-4-fluorophenyl)pyridin-3-yl)-[1,2,4]triazolo[1,5-a]pyridine] |
| 0.426 µM | O=c1cnc2ccc(-c3cccnc3-c3cc(Cl)ccc3F)cc2[nH]1 [compound 892, 7-(2-(5-Chloro-2-fluorophenyl)pyridin-3-yl)quinoxalin-2(1H)-one] |
| 4 µM | Cc1cc(-c2ncccc2-c2ccc3ncnn3c2C)ccc1F [compound 809, 6-(2-(4-Fluoro-3-methylphenyl)pyridin-3-yl)-5-methyl-[1,2,4]triazolo[1,5-a]pyridine] |
| 0.164 µM | CC(=O)Nc1ccc(CNc2cnc(-c3ccc(F)c(C)c3)c(-c3ccc4ncsc4c3)c2)cc1 [compound 338, N-(4-(((5-(Benzo[d]thiazol-6-yl)-6-(4-fluoro-3-methylphenyl)pyridin-3-yl)amino)methyl)phenyl)acetamide] |
| 0.07 µM | Nc1ncnc2ccc(-c3cccnc3-c3cccc(Cl)c3)cc12 [compound 393, 6-(2-(3-Chlorophenyl)pyridin-3-yl)quinazolin-4-amine] |
| 14.4 µM | Cc1cc(-c2ncccc2-c2ccn3c(C(=O)NCCN(C)C)ncc3c2)ccc1F [compound 268, N-(2-(Dimethylamino)ethyl)-7-(2-(4-fluoro-3-methylphenyl)pyridin-3-yl)imidazo[1,5-a]pyridine-3-carboxamide] |
| 0.453 µM | Cc1cc(-c2nc(N)ccc2-c2ccc3ncsc3c2)ccc1F [Compound 27, 5-(Benzo[d]thiazol-6-yl)-6-(4-fluoro-3-methylphenyl)pyridin-2-amine] |
| 0.285 µM | Cc1cc(-c2ncccc2-c2ccc3ncnc(OCCN4CCN(C)CC4)c3c2)ccc1F [compound 433, 6-(2-(4-Fluoro-3-methylphenyl)pyridin-3-yl)-4-(2-(4-methylpiperazin-1-yl)ethoxy)quinazoline] |
| 0.13 µM | Cc1cc(-c2ncccc2-c2ccc3ncsc3c2)ccc1F [Compound 159, 6-(2-(4-Fluoro-3-methylphenyl)pyridin-3-yl)benzo[d]thiazole] |
